In general, solubility refers to the dissolved amount per volume that the medium holds.

The nature of this series: Solubility estimation at RT by visual observation in solvent systems. The following applies: organic solvent or mixture, thermodynamic from solid. The series is classed as physicochemical. As to the method:
The solubility of compound 1 was estimated at RT by visual observation in 11 solvent systems. Approximately 5 mg solids were weighed into 8 mL glass vial, and then solvent was added stepwise until solids were dissolved completely or a total of solvent volume reached 5 mL. […] The solubility was estimated and for reference only.

Values after ≈ are worked out from the molar mass of the structure shown. Bounds are passed on as bounds.

As to `CNC(=O)c1ccc(N2CCN(Cc3cnc4cc(C5CC5)c(=O)[nH]c4c3)CC2)cn1` [Starting material, 5-(4-((7-cyclopropyl-6-oxo-5,6-dihydro-1,5-naphthyridin-3-yl)methyl)piperazin-1-yl)-N-methylpicolinamide], the solubility (most of the 11 tested solvent systems, RT, most tested solvents, except DMSO) was < 5000 µg/mL; the solubility (estimated at RT, visual observation, DMSO) is 20000 to 50000 µg/mL (≈ 47.8 to 119 mM); the solubility (estimated at RT, Acetone, ACN, Toluene, EA, n-Heptane, Water, Anisole, DCM, THF) is < 1000 µg/mL; the solubility (estimated, visual observation, MeOH, THF (50° C.)) was 1000 to 5000 µg/mL (≈ 2.39 to 11.9 mM).

The record behind these values is patent US20240174669A1, “CRYSTALLINE FORMS OF A PARP1 INHIBITOR” (XinThera, Inc., priority 2022, published 2024).
